Data taken from patent US8580829B2 (Boehringer Ingelheim International GmbH, priority 2010, dated 2013).

Columns and labels:
[1] = target: T1, recombinant human FLAP protein (Homo sapiens, UniProt P20292); test: FLAP binding assay (Scintillation Proximity Assay, displacement of [125I]L-691,831); conditions: recombinant human FLAP membranes, [125I]L-691,831 probe; read-out: FLAP SPA IC50
T1 construct: made in house; host or cells: Sf9 insect cells (100,000 x g membrane fraction)
T1 sequence (P20292 1-161): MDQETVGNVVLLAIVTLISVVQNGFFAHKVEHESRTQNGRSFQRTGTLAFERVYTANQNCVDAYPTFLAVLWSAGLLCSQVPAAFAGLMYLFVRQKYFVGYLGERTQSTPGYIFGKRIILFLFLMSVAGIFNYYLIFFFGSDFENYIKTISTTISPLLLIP
Summary of the method: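 WGA scintillation proximity beads were stirred 1 h with 5 μg of FLAP-containing membrane protein. The membranes came from baculovirus Sf9 cells, Dounce-lysed and spun to a 100,000×g pellet in buffer at pH 7.5.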

[2] = system: synthesis of LTB4 in human whole blood; test: human whole blood LTB4 production inhibition assay; assay type: cell-based; conditions: Homo sapiens, heparinized human whole blood, calcimycin 20 μM; read-out: hWB LTB4 IC50
Summary of the method: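 Readout: plasma LTB4 by antibody-based HTRF. Compound added to heparinized human whole blood, 15 min 37° C; calcimycin 20 μM final (PBS pH 7.4), 30 min 37° C; spun 1500×g 5 min, plasma taken.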

| SMILES | IC50 [1] [nM] | IC50 [2] [nM] |
| --- | --- | --- |
| COCCNC(=O)c1ccc(-c2nc(C3(c4ccc(-c5cnc(N)nc5)cc4)CCC3)no2)cn1 [Example 76, 5-(3-{1-[4-(2-Amino-pyrimidin-5-yl)-phenyl]-cyclobutyl}-1,2,4-oxadiazol-5-yl)-pyridine-2-carboxylic acid (2-methoxy-ethyl)-amide] | 3.9 | 190 |
| Nc1ncc(-c2ccc(C3(c4noc(-c5ccc(C(=O)NCCO)nc5)n4)CCC3)cc2)cn1 [Example 77, 5-(3-{1-[4-(2-Amino-pyrimidin-5-yl)-phenyl]-cyclobutyl}-1,2,4-oxadiazol-5-yl)-pyridine-2-carboxylic acid (2-hydroxy-ethyl)-amide] | 2.6 | 160 |
| CN(CCO)C(=O)c1ccc(-c2nc(C3(c4ccc(-c5cnc(N)nc5)cc4)CCC3)no2)cn1 [Example 78, 5-(3-{1-[4-(2-Amino-pyrimidin-5-yl)-phenyl]-cyclobutyl}-1,2,4-oxadiazol-5-yl)-pyridine-2-carboxylic acid (2-hydroxy-ethyl)-methyl-amide] | 8.8 | 160 |
| Nc1ncc(-c2ccc(C3(c4noc(N5CCCCC5)n4)CCC3)cc2)cn1 [Example 80, 5-{4-[1-(5-Piperidin-1-yl-1,2,4-oxadiazol-3-yl)-cyclobutyl]-phenyl}-pyrimidin-2-ylamine] | 6.5 | 390 |
| CNC(=O)Cn1cc(-c2nc(C3(c4ccc(-c5cnc(N)nc5)cc4)CCC3)no2)cn1 [Example 81, 2-[4-(3-{1-[4-(2-Amino-pyrimidin-5-yl)-phenyl]-cyclobutyl}-1,2,4-oxadiazol-5-yl)-pyrazol-1-yl]-N-methyl-acetamide] | 6.4 | 130 |
| CC(CO)n1cc(-c2nc(C3(c4ccc(-c5cnc(N)nc5)cc4)CCC3)no2)cn1 (stereo not shown) [Example 82, 2-[4-(3-{1-[4-(2-Amino-pyrimidin-5-yl)-phenyl]-cyclobutyl}-1,2,4-oxadiazol-5-yl)-pyrazol-1-yl]-propan-1-ol] | 3.1 | 99 |
| CC(O)Cn1cc(-c2nc(C3(c4ccc(-c5cnc(N)nc5)cc4)CCC3)no2)cn1 (stereo not shown) [Example 83, 1-[4-(3-{1-[4-(2-Amino-pyrimidin-5-yl)-phenyl]-cyclobutyl}-1,2,4-oxadiazol-5-yl)-pyrazol-1-yl]-propan-2-ol] | 4 | 110 |
| CC(C)(CO)n1cc(-c2nc(C3(c4ccc(-c5cnc(N)nc5)cc4)CCC3)no2)cn1 [Example 84, 2-[4-(3-{1-[4-(2-Amino-pyrimidin-5-yl)-phenyl]-cyclobutyl}-1,2,4-oxadiazol-5-yl)-pyrazol-1-yl]-2-methyl-propan-1-ol] | 4 | 160 |
| Nc1ncc(-c2ccc(C3(c4noc(-c5cnc(N6CCOCC6)cn5)n4)CCC3)cc2)cn1 [Example 85, 5-(4-{1-[5-(5-Morpholin-4-yl-pyrazin-2-yl)-1,2,4-oxadiazol-3-yl]-cyclobutyl}-phenyl)-pyrimidin-2-ylamine] | 1.3 | 71 |
| Nc1ncc(-c2ccc(C3(c4noc(-c5cnc(N6CC(O)C6)cn5)n4)CCC3)cc2)cn1 [Example 86, 1-[5-(3-{1-[4-(2-Amino-pyrimidin-5-yl)-phenyl]-cyclobutyl}-1,2,4-oxadiazol-5-yl)-pyrazin-2-yl]-azetidin-3-ol] | 1.2 | 79 |
| CCn1cnc(-c2nc(C3(c4ccc(-c5cnc(N)nc5)cc4)CCC3)no2)c1 [Example 87, 5-(4-{1-[5-(1-Ethyl-1H-imidazol-4-yl)-1,2,4-oxadiazol-3-yl]-cyclobutyl}-phenyl)-pyrimidin-2-ylamine] | 4.5 | 150 |
| COCCn1cnc(-c2nc(C3(c4ccc(-c5cnc(N)nc5)cc4)CCC3)no2)c1 [Example 88, 5-[4-(1-{5-[1-(2-Methoxy-ethyl)-1H-imidazol-4-yl]-1,2,4-oxadiazol-3-yl}-cyclobutyl)-phenyl]-pyrimidin-2-ylamine] | 6.3 | 160 |
| COC(=O)C(C)(C)Nc1cnc(-c2nc(C3(c4ccc(-c5cnc(N)nc5)cc4)CCC3)no2)cn1 [Example 90, 2-[5-(3-{1-[4-(2-Amino-pyrimidin-5-yl)-phenyl]-cyclobutyl}-1,2,4-oxadiazol-5-yl)-pyrazin-2-ylamino]-2-methyl-propionic acid methyl ester] | 3.4 | 210 |
| Nc1ncc(-c2ccc(C3(c4noc(-c5ccc(=O)[nH]c5)n4)CCC3)cc2)cn1 [Example 91, 5-(3-{1-[4-(2-Amino-pyrimidin-5-yl)-phenyl]-cyclobutyl}-1,2,4-oxadiazol-5-yl)-1H-pyridin-2-one] | 3.7 | 151 |
| Cn1ccc(-c2nc(C3(c4ccc(-c5cnc(N)nc5)cc4)CCC3)no2)n1 [Example 92, 5-(4-{1-[5-(1-Methyl-1I-pyrazol-3-yl)-1,2,4-oxadiazol-3-yl]-cyclobutyl}-phenyl)-pyrimidin-2-ylamine] | 4.9 | 150 |
| Nc1ncc(-c2ccc(C3(c4noc(-c5cc[nH]n5)n4)CCC3)cc2)cn1 [Example 93, 5-(4-{1-[5-(1H-Pyrazol-3-yl)-1,2,4-oxadiazol-3-yl]-cyclobutyl}-phenyl)-pyrimidin-2-ylamine] | 2.4 | 160 |
| CN(CCO)c1cc(-c2nc(C3(c4ccc(-c5cnc(N)nc5)cc4)CCC3)no2)ccn1 [Example 94, 2-{[4-(3-{1-[4-(2-amino-pyrimidin-5-yl)-phenyl]-cyclobutyl}-1,2,4-oxadiazol-5-yl)-pyridin-2-yl]-methyl-amino}-ethanol] | 6.1 | 560 |
| Nc1ncc(-c2ccc(C3(c4noc(-c5ccnc(NCCO)c5)n4)CCC3)cc2)cn1 [Example 95, 2-[4-(3-{1-[4-(2-Amino-pyrimidin-5-yl)-phenyl]-cyclobutyl}-1,2,4-oxadiazol-5-yl)-pyridin-2-ylamino]-ethanol] | 3.2 | 130 |
| Nc1ncc(-c2ccc(C3(c4noc(-c5nc[nH]n5)n4)CCC3)cc2)cn1 [Example 96, 5-(4-{1-[5-(1H-1,2,4-Triazol-3-yl)-1,2,4-oxadiazol-3-yl]-cyclobutyl}-phenyl)-pyrimidin-2-ylamine] | 13 | 2700 |
| COCCNc1cc(-c2nc(C3(c4ccc(-c5cnc(N)nc5)cc4)CCC3)no2)ccn1 [Example 97, 5-[4-(1-{5-[2-(2-Methoxy-ethylamino)-pyridin-4-yl]-1,2,4-oxadiazol-3-yl}-cyclobutyl)-phenyl]-pyrimidin-2-ylamine] | 2.9 | 92 |
| COc1cc(-c2nc(C3(c4ccc(-c5cnc(N)nc5)cc4)CCC3)no2)ccc1O [Example 98, 4-(3-{1-[4-(2-Amino-pyrimidin-5-yl)-phenyl]-cyclobutyl}-1,2,4-oxadiazol-5-yl)-2-methoxy-phenol] | 2.3 | 110 |
| Cc1cc(-c2nc(C3(c4ccc(-c5cnc(N)nc5)cc4)CCC3)no2)ccc1O [Example 99, 4-(3-{1-[4-(2-Amino-pyrimidin-5-yl)-phenyl]-cyclobutyl}-1,2,4-oxadiazol-5-yl)-2-methyl-phenol] | 2 | 150 |
| Nc1ncc(-c2ccc(C3(c4noc(-c5ccc(O)c(Cl)c5)n4)CCC3)cc2)cn1 [Example 100, 4-(3-{1-[4-(2-Amino-pyrimidin-5-yl)-phenyl]-cyclobutyl}-1,2,4-oxadiazol-5-yl)-2-chloro-phenol] | 2.1 | 170 |
| Nc1ncc(-c2ccc(C3(c4noc(-c5ccc(Cl)nc5)n4)CCC3)cc2)cn1 [Example 101, 5-(4-{1-[5-(6-Chloro-pyridin-3-yl)-1,2,4-oxadiazol-3-yl]-cyclobutyl}-phenyl)-pyrimidin-2-ylamine] | 3.3 | 250 |
| Nc1ncc(-c2ccc(C3(c4noc(-c5ccc(N6CCC[C@@H]6CO)nc5)n4)CCC3)cc2)cn1 [Example 102, {(R)-1-[5-(3-{1-[4-(2-Amino-pyrimidin-5-yl)-phenyl]-cyclobutyl}-1,2,4-oxadiazol-5-yl)-pyridin-2-yl]-pyrrolidin-2-yl}-methanol] | 2.5 | 180 |
| Nc1ncc(-c2ccc(C3(c4noc(-c5ccc(N6CC[C@@H](O)C6)nc5)n4)CCC3)cc2)cn1 [Example 103, (R)-1-[5-(3-{1-[4-(2-Amino-pyrimidin-5-yl)-phenyl]-cyclobutyl}-1,2,4-oxadiazol-5-yl)-pyridin-2-yl]-pyrrolidin-3-ol] | 1.3 | 63 |
| Nc1ncc(-c2ccc(C3(c4noc(-c5ccc(N6CCNCC6)cc5)n4)CCC3)cc2)cn1 [Example 104] | 1.3 | 99 |
| Nc1ncc(-c2ccc(C3(c4noc(-c5ccc(N6CC[C@H](O)C6)nc5)n4)CCC3)cc2)cn1 [Example 105, (S)-1-[5-(3-{1-[4-(2-Amino-pyrimidin-5-yl)-phenyl]-cyclobutyl}-1,2,4-oxadiazol-5-yl)-pyridin-2-yl]-pyrrolidin-3-ol] | 1.9 | 78 |
| CCOC(=O)CCN1CCN(c2ccc(-c3nc(C4(c5ccc(-c6cnc(N)nc6)cc5)CCC4)no3)cn2)CC1 [Example 106, 3-{4-[5-(3-{1-[4-(2-Amino-pyrimidin-5-yl)-phenyl]-cyclobutyl}-1,2,4-oxadiazol-5-yl)-pyridin-2-yl]-piperazin-1-yl}-propionic acid ethyl ester] | 2.7 | 130 |
